2 compounds from patent US6965051B2, “Process for resolution of tamsulosin and compounds, compositions, and processes associated therewith” (Synthon IP Inc., priority 2001, dated 2005) can be followed below.

A short description of data set [1]: Solubility of solid state racemic tamsulosin free base precipitates (qualitative). The settings on record: relatively pure precipitate. It counts as physicochemical. An excerpt: The typical starting tamsulosin substrate, namely racemic tamsulosin free base in solid state, is not formed in the prior art per se. The present invention is based in part on the discovery that the racemic free base can be formed and isolated in the solid state. Preferably the solid state form is a precipitate from a solution. More preferably, the solid state form is a crystalline form. The crystalline form includes all polymorphic modifications, unless otherwise noted and includes hydrates and solvates thereof. In particular, two polymorphic forms of solid state racemic tamsulosin free base, designated as Form 1 and Form 2, have now been discovered as part of the present invention and are described hereinafter. The solid state racemic free base can be isolated in high purity, including at least 80% purity, more preferably at least 90% purity, still more preferably at least 95% purity.

The nature of data set [2]: Water solubility of amine (5) observed during alkaline extraction. It counts as physicochemical. The following applies: free base, normal alkaline extraction gave too high a loss. An excerpt:
It has now been discovered that the so obtained free base of (5) is contaminated by side-products and should be purified for the next step. […] It has been discovered that an effective way to purify the amine is to form a sulfonic acid salt of the amine, especially methane sulfonate or tosylate. The salt, particularly the methane sulfonate salt of (5), may be isolated in solid, preferably crystalline state by conventional methods and may be used as an advantageous substrate in the next reaction step. The conversion of the free base of (5) into an acid addition salt and isolation of the salt in solid state enhances the purity of the compound (5), particularly it removes side products that resulted from hydrogenation such as 2-ethoxyphenyl. The 2-(o-ethoxyphenoxy)ethylamine methane sulfonate thus forms a specific aspect of this invention.

SMILES strings stand for the structures.

Regarding `CCOc1ccccc1OCCNC(C)Cc1ccc(OC)c(S(N)(=O)=O)c1` (racemic) [racemic tamsulosin free base, (R,S)-5-[2-[[2-(2-ethoxyphenoxy)ethyl]amino]propyl]-2-methoxybenzene-sulfonamide], the solubility in alcohols result in data set [1] (alcohols such as methanol and ethanol) was “soluble”. In addition, in data set [1] (chlorinated hydrocarbons), the “solubility in chlorinated hydrocarbons” value is reported as “soluble”. In addition, in data set [1] (water), the solubility in water entry is “sparingly soluble”.

`CCOc1ccccc1OCCN` [amine (5), 2-(o-ethoxyphenoxy)ethylamine]: the water solubility result in data set [2] is recorded as “unexpectedly high”.
